Reference: patent US7643943B2, “Methods for monitoring drug activities in vivo” (Wyeth LLC, priority 2003, dated 2010)

System: transcripts in patient PBMCs
Experiment: Spearman's rank correlation of changes in PBMC gene expression (HgU95A arrays) with cumulative AUCsum
Assay type: in vivo, human
Conditions: change in PBMC expression from baseline
Text: Consent for the pharmacogenomic portion of the clinical study was received and the project was approved by the local Institutional Review Boards at the participating clinical sites. Blood samples for pharmacogenomic characterization were drawn into cell purification tubes (CPT, Becton Dickinson) prior to therapy and following approximately 8 and 16 weeks of treatment. All blood samples were shipped overnight to the Wyeth Department of Molecular Medicine in Andover, Mass., and PBMCs were isolated from the whole blood samples (8 mL) in CPT tubes according to the manufacturer's procedure. For expression profiling analyses, total RNA was isolated from PBMC pellets using the RNeasy mini kit (Qiagen, Valencia, Calif.) and labeled probe for oligonucleotide arrays was prepared using a modification of the procedure described by Lockhart, et al., NAT. BIOTECHNOL., 14:1675-1680 (1996). […] The “average difference” values for each transcript were normalized to “frequency” values using the scaled frequency normalization method (Hill, et al, GENOME BIOL. 2:research0055.1-0055.13 (2001)) in which the average differences for 11 control cRNAs with known abundance spiked into each hybridization solution were used to generate a global calibration curve. This calibration was then used to convert average difference values for all transcripts to frequency estimates, stated in units of parts per million ranging from 1:300,000 (˜3 parts per million (ppm)) to 1:1000 (1000 ppm). PBMC gene expression data were normalized by the scaled frequency normalization method as described above. […] The filter which removes transcripts called absent in all samples is based upon the absent/present decision call made by the […] 3.2 software, which reflects the relative intensity of hybridization of the labeled probes to perfectly matched oligonucleotides versus hybridization to mismatched oligonucleotides for each transcript on the HgU95A chip. The filter that removes transcripts with a frequency of less than 10 ppm in all samples is designed to remove low abundance transcripts which may have variable expression in technical replicates. […] Changes from pretreatment levels were calculated based on log-transformed expression levels. […] Pairwise correlations were calculated to assess the association between individually derived exposure metrics and gene expression levels measured by HgU95A Affymetrix microarrays during the course of therapy. Correlations were run for two pharmacokinetic parameters—cumulative AUC and cumulative AUCsum, and for four measures of expression level—log2-transformed scaled frequency at 8 weeks, log2-transformed scaled frequency at 16 weeks, the difference between log2-transformed scaled frequency at 8 weeks and baseline, and the difference between log2-transformed scaled frequency at 16 weeks and baseline. Spearman's rank correlations, which are not sensitive to potential non-normal distributional properties of the pharmacokinetic parameters, were computed. The p-value for the hypothesis that the correlation was equal to 0 was calculated for each pairwise correlation. […] The results of permutation tests run for cumulative AUCsum vs expression change at 8 weeks and at 16 weeks are shown in Tables 5a and 5b. […] Table 6 also includes FARP1 (Accession No. A1701049). […] Accession numbers for the 19 transcripts are presented in Table 6, along with columns indicating the coefficient of variation observed in healthy individuals (% CV), the p-value observed in the Spearman correlation, the actual magnitude of the correlation, and the corresponding gene names.

CO[C@H]1C[C@@H]2CC[C@@H](C)[C@@](O)(O2)C(=O)C(=O)N2CCCC[C@H]2C(=O)O[C@H]([C@H](C)C[C@@H]2CC[C@@H](OC(=O)C(C)(CO)CO)[C@H](OC)C2)CC(=O)[C@H](C)/C=C(\C)[C@@H](O)[C@@H](OC)C(=O)[C@H](C)C[C@H](C)/C=C/C=C/C=C/1C [CCI-779]
Correlation with AUCsum at 16 weeks: KIAA0857 (AB020664, P-value 0.0006): 0.69 | Correlation with AUCsum at 8 weeks: KIAA0857 (AB020664, P-value 0.9627): 0.01 | Correlation with AUCsum at 16 weeks: B4GALT3 (AF038661, P-value 0.0002): 0.73 | Correlation with AUCsum at 8 weeks: B4GALT3 (AF038661, P-value 0.2589): 0.21 | Correlation with AUCsum at 16 weeks: SLC25A11 (AF070548, P-value 0.0006): 0.69 | Correlation with AUCsum at 8 weeks: SLC25A11 (AF070548, P-value 0.0881): 0.32 | Correlation with AUCsum at 16 weeks: IKBKG (AF074382, P-value 0.0007): 0.68 | Correlation with AUCsum at 8 weeks: IKBKG (AF074382, P-value 0.1013): 0.30 | Correlation with AUCsum at 16 weeks: UNK_AI147237 (AI147237, P-value 0.0004): 0.70 | Correlation with AUCsum at 8 weeks: UNK_AI147237 (AI147237, P-value 0.0877): 0.32 | Correlation with AUCsum at 16 weeks: COX6A1 (AI540925, P-value 0.0002): −0.73 | Correlation with AUCsum at 8 weeks: COX6A1 (AI540925, P-value 0.0050): −0.50 | Correlation with AUCsum at 16 weeks: FARP1 (AI701049, P-value 0.001): 0.66 | Correlation with AUCsum at 8 weeks: FARP1 (AI701049, P-value 0.0089): 0.47 | Correlation with AUCsum at 16 weeks: U2AF65 (AI762438, P-value 0.0001): 0.74 | Correlation with AUCsum at 8 weeks: U2AF65 (AI762438, P-value 0.2209): 0.23 | Correlation with AUCsum at 16 weeks: UNK_AL022318 (AL022318, P-value 0.0005): 0.69 | Correlation with AUCsum at 8 weeks: UNK_AL022318 (AL022318, P-value 0.2617): 0.21 | Correlation with AUCsum at 16 weeks: UNK_AL046394 (AL046394, P-value 0.0002): 0.72 | Correlation with AUCsum at 8 weeks: UNK_AL046394 (AL046394, P-value 0.0999): 0.31 | Correlation with AUCsum at 16 weeks: UNK_H98552 (H98552, P-value 0.0003): 0.71 | Correlation with AUCsum at 8 weeks: UNK_H98552 (H98552, P-value 0.0308): 0.39 | Correlation with AUCsum at 16 weeks: DPEP1 (J05257, P-value 0.0005): 0.69 | Correlation with AUCsum at 8 weeks: DPEP1 (J05257, P-value 0.0348): 0.39 | Correlation with AUCsum at 16 weeks: CYP11A (M14565, P-value 0.0006): 0.69 | Correlation with AUCsum at 8 weeks: CYP11A (M14565, P-value 0.0838): 0.32 | Correlation with AUCsum at 16 weeks: TNNT1 (M19309, P-value 0.0004): 0.70 | Correlation with AUCsum at 8 weeks: TNNT1 (M19309, P-value 0.2684): 0.21 | Correlation with AUCsum at 16 weeks: PML (M79463, P-value 0.0007): 0.68 | Correlation with AUCsum at 8 weeks: PML (M79463, P-value 0.0378): 0.38 | Correlation with AUCsum at 16 weeks: SLC19A1 (U17566, P-value 0.0007): 0.68 | Correlation with AUCsum at 8 weeks: SLC19A1 (U17566, P-value 0.1220): 0.29 | Correlation with AUCsum at 16 weeks: USP11 (U44839, P-value 0.0001): 0.76 | Correlation with AUCsum at 8 weeks: USP11 (U44839, P-value 0.3998): 0.16 | Correlation with AUCsum at 16 weeks: ACTN4 (U48734, P-value 0.0003): 0.71 | Correlation with AUCsum at 8 weeks: ACTN4 (U48734, P-value 0.0721): 0.33 | Correlation with AUCsum at 16 weeks: FOXM1 (U90917, P-value 0.0001): 0.75 | Correlation with AUCsum at 8 weeks: FOXM1 (U90917, P-value 0.206): 0.24 | Correlation with AUCsum at 16 weeks: SULT2B1 (U92315, P-value 0.0005): 0.69 | Correlation with AUCsum at 8 weeks: SULT2B1 (U92315, P-value 0.1066): 0.30
